Laboratory results: article PMC12455637, “Functionalizing Nisin with a Sugar Moiety Improves Its Solubility and Results in an Altered Antibacterial Spectrum and Mode of Action” (ACS Synthetic Biology, 2025)
≈ marks a conversion by molar mass, not a printed value. Square brackets hold non-standard residues; d marks the D form. Primed or numbered codes have the meaning given here. Side chains are listed from the residue outwards. Ends that are not written are not given here. triazole = not defined here; Hpg′ = not defined here

Key:
Bacillus cereus CH-85 = experiment: MIC, broth microdilution; assay type: cell-based; conditions: inoculum ~5 × 10^5 CFU/mL, overnight 37 °C, HPLC-purified peptides
Method: (§1) The minimal inhibitory concentration (MIC) values were assessed through broth microdilution following standard guidelines. The inoculum was adjusted to around 5 × 10^5 CFU/mL. MIC was characterized as the lowest concentration of the antimicrobial substance at which no visible growth was observed following overnight incubation at 37 °C.

[1] = tested on: Listeria monocytogenes LMG10470; experiment: MIC, broth microdilution; assay type: cell-based; conditions: inoculum ~5 × 10^5 CFU/mL, overnight 37 °C, HPLC-purified peptides
Method: as §1

E. faecium [2] = assay type: cell-based, Enterococcus faecium; conditions: for decrease in zone of inhibition (activity) on Hpg labeling: 30 μL of 1 mg/mL in 8 mm wells, zone area minus well area, 3 experiments
Method: 2 Production of single-Met containing nisin and nisin variants labeled with Met, Hpg or Hpg–Glc and their antibacterial activity against E. faecium strain. (a) Quantification of fully modified nisin variants labeled with Met or Hpg using HPLC as per Schmitt et al. (b) Evaluation of the antimicrobial efficacy of nisin and its variants against E. faecium through agar well diffusion assay. Each trial was repeated 3 times. The relative activity was determined by measuring inhibition zone diameters in millimeters, calculated as the area of the zone (πr ^2) minus the area of the well (πr ^2) in millimeters.
An overnight culture was added at a concentration of 0.1% (v/v) to molten GM17 agar (for E. faecium and E. faecalis) or LB agar (for S. aureus and B. cereus) at 45 °C, and then 30 mL of this mixture was poured onto a plate. After the agar solidified, wells of 8 mm were created by punching in the agar and filled with 30 μL of a 1 mg/mL lantibiotic solution. If needed, lantibiotics were activated by adding 3 μL of 1 mg/mL NisP directly to the well. The quantity of nisin was determined using HPLC as previously outlined. The agar plate was then incubated at 37 °C overnight, and the zones of inhibition were measured. The presented data results from three independent experiments. Zone diameters were measured in millimeters and recorded as the area of the zone (πr ^2) minus the area of the well (πr ^2) in millimeters.

[3] = tested on: Enterococcus faecium LMG16003 (VRE); assay type: cell-based; conditions: broth microdilution, inoculum ~5 × 10^5 CFU/mL, overnight 37 °C, HPLC-purified peptides
Method: as §1

[4] = tested on: Staphylococcus aureus LMG15975 (MRSA); assay type: cell-based; conditions: broth microdilution, inoculum ~5 × 10^5 CFU/mL, overnight 37 °C, HPLC-purified peptides
Method: as §1

[5] = tested on: various Gram-positive bacteria; conditions: ref citation numbers not given; cited from earlier work
Source text: Recently, we introduced the Met analog Aha at position 17 and used click chemistry to ...

E. faecium [6] = experiment: Time-kill assay; assay type: cell-based, Enterococcus faecium; conditions: 5-fold MIC against E. faecium
Method: The antimicrobial effectiveness of nisin, nisin(1–22), and nisin(M21V)–Gal was assessed using a method previously described by Guo et al. , In summary, an overnight culture of E. faecium was diluted 50 times in GM17 medium and cultured at 37 °C. The bacteria were grown until reaching an optical density at 600 nm (OD600) of 0.5, and then the cell concentration was adjusted to 5 × 10^5 colony-forming units per milliliter (CFU/mL). Following this, the bacteria were exposed to a 5-fold MIC of each peptide. An untreated cell suspension was used as a control. At specific time intervals, 50 μL samples were taken, and both undiluted and 10-fold serially diluted suspensions were plated on GM17 agar. The plates were then incubated overnight at 37 °C, and the resulting colonies were counted and expressed as CFU/mL. Each experiment was conducted in triplicate.

[7] = compared to the same peptide labeled with Met

**Q.** What does the source list for `C#CCC[C@H](NC(=O)[C@H](CC(N)=O)NC(=O)[C@@H]1CS[C@@H](C)[C@@H](NC(=O)[C@H](CCCCN)NC(=O)[C@@H]2CS[C@@H](C)[C@@H](NC(=O)[C@@H]3CSC[C@@H](NC(=O)/C(=C/C)NC(=O)[C@@H](N)[C@@H](C)CC)C(=O)N[C@@H]([C@@H](C)CC)C(=O)NC(=C)C(=O)N[C@@H](CC(C)C)C(=O)N3)C(=O)N3CCC[C@H]3C(=O)NCC(=O)N2)C(=O)NCC(=O)N[C@@H](C)C(=O)N[C@@H](CC(C)C)C(=O)N[C@@H]([C@@H](C)CC)C(=O)NCC(=O)N1)C(=O)N[C@@H](CCCCN)C(=O)N[C@H]1C(=O)N[C@@H](C)C(=O)N[C@H]2C(=O)N[C@@H](CS[C@H]1C)C(=O)N[C@@H](Cc1c[nH]cn1)C(=O)N[C@H](C(=O)N[C@@H](CO)C(=O)N[C@H](C(=O)N[C@@H](Cc1c[nH]cn1)C(=O)N[C@H](C(=O)NC(=C)C(=O)N[C@@H](CCCCN)C(=O)O)C(C)C)[C@@H](C)CC)CS[C@H]2C` [nisin(M17I)(Hpg)]?
**A.** MIC (Bacillus cereus CH-85): 121.5 µg/mL (≈ 36.7 µM); MIC [1]: 121.5 µg/mL (≈ 36.7 µM); decrease in zone of inhibition (activity) on Hpg labeling (E. faecium [2]; [7]): 30%; MIC [3]: 15.2 µg/mL (≈ 4.59 µM); MIC [4]: 30.4 µg/mL (≈ 9.17 µM)

**Q.** Which MIC (Bacillus cereus CH-85) does the source give for `C#CCC[C@@H]1NC(=O)[C@H](CC(C)C)NC(=O)[C@H](C)NC(=O)CNC(=O)[C@H](NC(=O)[C@H](CCCCN)NC(=O)[C@@H]2CS[C@@H](C)[C@@H](NC(=O)[C@@H]3CSC[C@@H](NC(=O)/C(=C/C)NC(=O)[C@@H](N)[C@@H](C)CC)C(=O)N[C@@H]([C@@H](C)CC)C(=O)NC(=C)C(=O)N[C@@H](CC(C)C)C(=O)N3)C(=O)N3CCC[C@H]3C(=O)NCC(=O)N2)[C@H](C)SC[C@@H](C(=O)N[C@@H](CC(N)=O)C(=O)N[C@H](C(=O)N[C@@H](CCCCN)C(=O)N[C@H]2C(=O)N[C@@H](C)C(=O)N[C@H]3C(=O)N[C@@H](CS[C@H]2C)C(=O)N[C@@H](Cc2c[nH]cn2)C(=O)N[C@H](C(=O)N[C@@H](CO)C(=O)N[C@H](C(=O)N[C@@H](Cc2c[nH]cn2)C(=O)N[C@H](C(=O)NC(=C)C(=O)N[C@@H](CCCCN)C(=O)O)C(C)C)[C@@H](C)CC)CS[C@H]3C)C(C)C)NC(=O)CNC1=O` [nisin(M21V)(Hpg)] here?
**A.** The MIC was 30.4 µg/mL (≈ 9.21 µM).

**Q.** What about the MIC [1] of the same molecule?
**A.** Its MIC is 30.4 µg/mL (≈ 9.21 µM).

**Q.** What about the “decrease in zone of inhibition (activity) on Hpg labeling” value (“decrease in zone of inhibition” below) (E. faecium [2]; [7]) of the same molecule?
**A.** Its value is 17%.

**Q.** And the MIC [3]?
**A.** Its MIC is 7.6 µg/mL (≈ 2.3 µM).

**Q.** And the MIC [4]?
**A.** The MIC was 15.2 µg/mL (≈ 4.61 µM).

**Q.** For `C#CCC[C@H](NC(=O)[C@@H]1CS[C@@H](C)[C@@H](NC(=O)[C@@H](NC(=O)[C@@H]2CS[C@@H](C)[C@@H](NC(=O)[C@@H]3CSC[C@@H](NC(=O)/C(=C/C)NC(=O)[C@@H](N)[C@@H](C)CC)C(=O)N[C@@H]([C@@H](C)CC)C(=O)NC(=C)C(=O)N[C@@H](CC(C)C)C(=O)N3)C(=O)N[C@@H](C)C(=O)NCC(=O)N2)[C@@H](C)CC)C(=O)NCC(=O)N[C@@H](C(C)C)C(=O)N[C@@H]([C@@H](C)CC)C(=O)N[C@@H]([C@@H](C)CC)C(=O)N/C(=C\C)C(=O)N1)C(=O)N[C@@H]1CSC[C@@H](C(=O)N[C@@H](CCCCN)C(=O)O)NC(=O)CNC(=O)[C@H](CC(N)=O)NC1=O` [rombocin(M17I)(Hpg)], which “decrease in zone of inhibition” value (E. faecium [2]; [7]) is on record?
**A.** The value was 49%.

**Q.** With `C#CCC[C@@H]1NC(=O)[C@H]([C@@H](C)CC)NC(=O)[C@H](C(C)C)NC(=O)CNC(=O)[C@H](NC(=O)[C@@H](NC(=O)[C@@H]2CS[C@@H](C)[C@@H](NC(=O)[C@@H]3CSC[C@@H](NC(=O)/C(=C/C)NC(=O)[C@@H](N)[C@@H](C)CC)C(=O)N[C@@H]([C@@H](C)CC)C(=O)NC(=C)C(=O)N[C@@H](CC(C)C)C(=O)N3)C(=O)N[C@@H](C)C(=O)NCC(=O)N2)[C@@H](C)CC)[C@H](C)SC[C@@H](C(=O)N[C@H](C(=O)N[C@@H]2CSC[C@@H](C(=O)N[C@@H](CCCCN)C(=O)O)NC(=O)CNC(=O)[C@H](CC(N)=O)NC2=O)C(C)C)NC(=O)/C(=C/C)NC1=O` [rombocin(M20V)(Hpg)] as the molecule, how does the “decrease in zone of inhibition” value (E. faecium [2]; [7]) read?
**A.** Its value is 13%.

**Q.** For “M17W: literature nisin mutant with M17W mutation (ITSISLCTPGCKTGALWGCNMKTATCHCSIHVSK; cysteine pairing not given here; also: lantibiotic nisin-A; UniProt P13068 24-57, looked up, variant M17W) [reference compound]”, which “influence of M17 mutation on antimicrobial activity” value [5] is on record?
**A.** Its value is “reduced activity”.

**Q.** With “nisin(1–22): truncated variant of nisin, bacteriostatic control that only binds lipid II (ITSISLCTPGCKTGALMGCNMK; cysteine pairing not given here; also: lantibiotic nisin-A; UniProt P13068 24-45, looked up, fragment) [reference compound]” as the molecule, how does the “bacteriostatic or bactericidal nature” value (E. faecium [6]) read?
**A.** Its value is “bacteriostatic effect”.

**Q.** For “nisin(M17I): single-Met nisin mutant M17I, labeled with Met (ITSISLCTPGCKTGALIGCNMKTATCHCSIHVSK; not fully specified (some residues, bridges); cysteine pairing not given here; also: lantibiotic nisin-A, labeled with Met; UniProt P13068 24-57, looked up, variant M17I)”, which “influence of M17 mutation on antimicrobial activity” value [5] is on record?
**A.** Its value is “reduced activity”.

**Q.** For “nisin(M17I)–Glc (ITSISLCTPGCKTGALIGCN[Hpg′]([triazole-2‑deoxy‑D‑glucose])KTATCHCSIHVSK; not fully specified (some residues, bridges); reading uncertain; also: nisin-A lantibiotic thioether rings and dehydro residues, not placed; UniProt P13068 24-57, looked up, variant M17I)”, which “decrease of activity after glucose attachment” value (E. faecium [2]; compared to the Hpg-labeled peptide, agar well diffusion) is on record?
**A.** The value was 15%.

**Q.** What about the “decrease of activity of the glucose conjugate” value (E. faecium [2]; compared to the same peptide labeled with Met, agar well diffusion) of the same molecule?
**A.** Its value is 41%.

**Q.** For “nisin(M21V): single-Met nisin mutant M21V, labeled with Met (ITSISLCTPGCKTGALMGCNVKTATCHCSIHVSK; not fully specified (some residues, bridges); cysteine pairing not given here; also: lantibiotic nisin-A, labeled with Met; UniProt P13068 24-57, looked up, variant M21V)”, which “antibacterial activity in words” value (E. faecium [2]; agar well diffusion, 30 μL of 1 mg/mL) is on record?
**A.** Its value is “highest antibacterial activity”.
